Test results reported in PMC10140010 (Investigational New Drugs, 2023).
Where “and” joins values, the source holds several entries; their conditions need not be identical. Equal values may be shown once.

How the values were obtained:
[1] = target: LCK (Homo sapiens, UniProt P06239); test: Z'-LYTE kinase selectivity; assay type: biochemical
[2] = target: CK1 alpha (Homo sapiens, UniProt P48729); test: Z'-LYTE kinase selectivity; assay type: biochemical
[3] = target: MST4 (Homo sapiens, UniProt Q9P289); test: Z'-LYTE kinase selectivity; assay type: biochemical
Chain of MST4 (Q9P289 whole entry): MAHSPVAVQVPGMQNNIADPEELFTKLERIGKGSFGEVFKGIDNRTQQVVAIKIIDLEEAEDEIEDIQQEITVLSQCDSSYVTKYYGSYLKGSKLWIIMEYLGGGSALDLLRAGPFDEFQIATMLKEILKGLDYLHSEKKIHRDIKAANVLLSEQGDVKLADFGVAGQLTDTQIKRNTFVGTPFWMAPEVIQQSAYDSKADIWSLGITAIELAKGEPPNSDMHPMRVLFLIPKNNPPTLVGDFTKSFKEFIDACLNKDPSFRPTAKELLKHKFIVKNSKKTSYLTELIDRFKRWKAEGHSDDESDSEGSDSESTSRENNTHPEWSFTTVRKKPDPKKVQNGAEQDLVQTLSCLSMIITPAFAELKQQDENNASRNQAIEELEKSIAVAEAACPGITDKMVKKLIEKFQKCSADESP

[4] = target: JNK1 (Homo sapiens, UniProt P45983); test: Z'-LYTE kinase selectivity; assay type: biochemical
Chain of JNK1 (P45983 whole entry): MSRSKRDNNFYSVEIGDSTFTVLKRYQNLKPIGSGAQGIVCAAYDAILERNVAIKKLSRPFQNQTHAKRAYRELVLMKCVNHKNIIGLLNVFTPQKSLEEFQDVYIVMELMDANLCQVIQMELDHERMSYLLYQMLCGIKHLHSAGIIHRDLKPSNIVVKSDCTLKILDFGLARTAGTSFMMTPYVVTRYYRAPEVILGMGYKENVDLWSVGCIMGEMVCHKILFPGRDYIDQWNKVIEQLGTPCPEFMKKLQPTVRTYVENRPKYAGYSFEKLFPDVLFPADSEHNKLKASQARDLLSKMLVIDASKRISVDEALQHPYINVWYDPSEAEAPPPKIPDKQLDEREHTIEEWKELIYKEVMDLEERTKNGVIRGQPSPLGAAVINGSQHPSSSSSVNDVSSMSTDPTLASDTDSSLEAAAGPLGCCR

[5] = system: phosphorylation of ALK, AKT, ERK, STAT3 and STAT5 in NCI-H3122 tumor tissue; test: Phosphorylation of downstream signal molecules in tumor tissue of NCI-H3122 xenograft; assay type: in vivo, BALB/c nude mice; conditions: 8 h after administration
Experimental: In general, the cells were exposed to the drug and were harvested for western blot analysis. SDS-PAGE was used to separate the proteins of interest, which were then transferred to a nitrocellulose (NC) filtration membrane and soaked in a blocking solution [5% non-fat dry milk in tris-buffered saline with Tween 20 (TBST)] for 1 h at room temperature. Thereafter, the membrane was probed overnight with primary antibodies at 4℃ and washed three times with TBST. The corresponding secondary antibody diluent was added, incubated at room temperature for 1 h, and washed 3 times with TBST. After adding the enhanced chemiluminescence developer to the NC filtration membrane, it is developed in the imaging system (ChemiDoc™ XRS^+, BIO-RAD). See Supplementary Table 2 for details of the antibodies used.
In order to check how iruplinalkib exerts its anti-tumor effects in vivo, tumor tissue samples were collected at 1 and 8 h after the last dose, and the phosphorylation level of downstream signaling pathways molecules were detected.

[6] = target: c-MET (Homo sapiens, UniProt P08581); test: Z'-LYTE kinase selectivity; assay type: biochemical
[7] = system: NCI-H3122 (EML4-ALK) xenograft; test: NCI-H3122 cell line-derived xenograft model (tumor volume, body weight); assay type: in vivo, BALB/c nude mice; conditions: 5mg/kg PO QD×21; for Tumor volume, individual animals: in mm³
Experimental: Female BALB/c nude mice (4–6 weeks old) were provided by Shanghai Sipple-Bikai Laboratory Animal Co., Ltd. and Beijing Vital River Laboratory Animal Technology Co., Ltd. The mice were housed in a specific pathogen-free environment under a 12 h light/dark cycle, and had free access to sterile animal feed and water.
PDX and CDX models were used for in vivo studies. Patient-derived tumors tissues were divided into about 30 mm^3 and transplanted into the right dorsal subcutis. Treatment began when the tumor size reached to 200 mm^3. The mice were randomly assignied into the corresponding dosing groups (9 mice in each group). Drugs were deliverd via daily oral for 4 weeks. Tumor size was measured periodically using a digital caliper (Cal Pro, Sylvac, Switzerland), and tumor volume was calculated as 0.5 × length × width^2. For more detailed information, please refer to Supplementary materials. All procedures and protocols of xenograft models were approved by the Institutional Animal Care and Use Committee of WuXi AppTec.
NCI-H3122 cells were re-suspended with 0.9% sodium chloride, and then 6×10^6 cells in 100 μL was inoculated subcutaneously into the right armpit of nude mice to prepare solid tumor models under sterile conditions. […] Groups were gavaged once daily with the base dose of drug for 21 days. The blank control group was given the same volume of vehicle (sterile water) injection according to the same protocol, with the dose volume of 100 μL/10 g.

[8] = target: GSK3 beta (Homo sapiens, UniProt P49841); test: Z'-LYTE kinase selectivity; assay type: biochemical
Chain of GSK3 beta (P49841 whole entry): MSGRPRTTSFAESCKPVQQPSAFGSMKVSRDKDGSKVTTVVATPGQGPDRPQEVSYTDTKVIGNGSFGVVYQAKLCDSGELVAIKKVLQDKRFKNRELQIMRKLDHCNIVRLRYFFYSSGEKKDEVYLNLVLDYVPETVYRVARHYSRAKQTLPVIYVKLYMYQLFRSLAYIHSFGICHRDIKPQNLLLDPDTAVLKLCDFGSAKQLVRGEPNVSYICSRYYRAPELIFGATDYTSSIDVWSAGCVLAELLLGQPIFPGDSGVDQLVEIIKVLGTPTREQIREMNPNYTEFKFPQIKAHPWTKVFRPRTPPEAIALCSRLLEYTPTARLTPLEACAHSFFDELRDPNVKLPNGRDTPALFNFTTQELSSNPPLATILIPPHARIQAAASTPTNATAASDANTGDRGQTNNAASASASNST

[9] = target: DYRK3 (Homo sapiens, UniProt O43781); test: Z'-LYTE kinase selectivity; assay type: biochemical
[10] = target: MINK (Homo sapiens, UniProt Q8N4C8); test: Z'-LYTE kinase selectivity; assay type: biochemical
[11] = target: ABL (Homo sapiens, UniProt P00519); test: Z'-LYTE kinase selectivity; assay type: biochemical
Chain of ABL (P00519 whole entry): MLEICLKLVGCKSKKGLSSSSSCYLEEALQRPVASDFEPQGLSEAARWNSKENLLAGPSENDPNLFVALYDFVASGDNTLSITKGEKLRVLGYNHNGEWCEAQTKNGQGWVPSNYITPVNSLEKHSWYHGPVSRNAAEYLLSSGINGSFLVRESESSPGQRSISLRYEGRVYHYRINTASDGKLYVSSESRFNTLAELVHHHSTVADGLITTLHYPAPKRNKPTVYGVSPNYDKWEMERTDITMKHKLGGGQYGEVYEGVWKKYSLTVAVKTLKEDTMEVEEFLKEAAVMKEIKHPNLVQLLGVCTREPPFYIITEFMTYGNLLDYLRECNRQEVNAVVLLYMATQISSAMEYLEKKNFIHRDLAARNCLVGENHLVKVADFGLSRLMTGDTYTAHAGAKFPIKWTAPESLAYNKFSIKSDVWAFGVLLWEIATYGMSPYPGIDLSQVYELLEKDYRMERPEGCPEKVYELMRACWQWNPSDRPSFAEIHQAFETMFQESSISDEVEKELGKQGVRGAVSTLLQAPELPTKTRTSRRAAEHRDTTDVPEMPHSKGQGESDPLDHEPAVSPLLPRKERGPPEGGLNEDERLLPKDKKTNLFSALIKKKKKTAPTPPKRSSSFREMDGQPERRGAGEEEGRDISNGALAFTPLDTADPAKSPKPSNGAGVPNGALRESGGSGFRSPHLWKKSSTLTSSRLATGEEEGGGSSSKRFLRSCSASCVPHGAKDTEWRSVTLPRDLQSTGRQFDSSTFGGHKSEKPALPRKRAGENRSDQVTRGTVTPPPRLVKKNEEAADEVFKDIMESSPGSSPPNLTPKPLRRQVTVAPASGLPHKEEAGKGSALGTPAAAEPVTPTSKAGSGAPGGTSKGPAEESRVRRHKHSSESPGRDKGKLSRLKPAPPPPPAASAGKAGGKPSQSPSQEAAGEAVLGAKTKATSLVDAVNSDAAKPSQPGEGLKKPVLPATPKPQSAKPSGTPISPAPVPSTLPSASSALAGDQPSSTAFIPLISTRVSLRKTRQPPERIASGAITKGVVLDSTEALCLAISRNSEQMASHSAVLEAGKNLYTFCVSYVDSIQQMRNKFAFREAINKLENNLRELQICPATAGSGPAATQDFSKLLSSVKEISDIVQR

[12] = system: NCI-H1975 (EGFR^L858R/T790M) cells; test: Cell proliferation (CellTiter-Glo); assay type: cell-based
Experimental: (§1) Cell proliferation assay was performed using methods reported in the previous article. Cell proliferation was measured using the CellTiter-Glo® (CTG) Luminescent Cell Viability Assay (Promega, WI, USA). Cells were seeded in 96-well plates at 15,000 cells per well in detection medium containing 0.5% fetal bovine serum and placed in an incubator at 37℃ and 5% CO2 overnight. On the following day, iruplinalkib was serially diluted with DMSO, further diluted in assay medium, and added to the designated wells for serial dilution of iruplinalkib to the target gradient concentration.

[13] = system: NIH-3T3 (CD74-ROS1) cells; test: Cell proliferation (CellTiter-Glo); assay type: cell-based
Experimental: as §1

[14] = system: Karpas299 (NPM-ALK) cells; test: Cell proliferation (CellTiter-Glo); assay type: cell-based
Experimental: as §1

[15] = system: Ba/F3 cells; test: Cell proliferation (CellTiter-Glo); assay type: cell-based; conditions: read-out: IC50 BaF3
Experimental: as §1

[16] = system: HCC-78 (SLC34A2-ROS1) cells; test: Cell proliferation (CellTiter-Glo); assay type: cell-based
Experimental: as §1

[17] = system: Ba/F3 (SLC34A2-ROS1) cells; test: Cell proliferation (CellTiter-Glo); assay type: cell-based; conditions: read-out: IC50 BaF3 SLC34A2-ROS1
Experimental: as §1

[18] = target: CDK2 (Homo sapiens, UniProt P24941); test: Z'-LYTE kinase selectivity; assay type: biochemical
[19] = target: SRC (Homo sapiens, UniProt P12931); test: Z'-LYTE kinase selectivity; assay type: biochemical
Chain of SRC (P12931 whole entry): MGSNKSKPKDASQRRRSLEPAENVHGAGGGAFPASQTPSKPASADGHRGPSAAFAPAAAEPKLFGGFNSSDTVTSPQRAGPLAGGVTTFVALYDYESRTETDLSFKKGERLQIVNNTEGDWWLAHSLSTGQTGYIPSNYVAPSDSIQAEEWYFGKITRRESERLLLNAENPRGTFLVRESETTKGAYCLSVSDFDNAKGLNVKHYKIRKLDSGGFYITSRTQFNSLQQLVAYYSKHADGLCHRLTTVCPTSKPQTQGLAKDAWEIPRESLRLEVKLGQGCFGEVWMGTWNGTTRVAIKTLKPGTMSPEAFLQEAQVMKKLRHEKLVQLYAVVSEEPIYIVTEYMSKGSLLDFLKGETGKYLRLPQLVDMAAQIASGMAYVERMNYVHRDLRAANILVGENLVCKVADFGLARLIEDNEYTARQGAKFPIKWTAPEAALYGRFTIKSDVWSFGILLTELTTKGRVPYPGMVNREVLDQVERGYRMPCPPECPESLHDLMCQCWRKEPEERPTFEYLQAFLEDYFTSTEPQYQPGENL

[20] = target: JAK2 (Homo sapiens, UniProt O60674); test: Z'-LYTE kinase selectivity; assay type: biochemical
[21] = target: CaMK2 alpha (Homo sapiens, UniProt Q9UQM7); test: Z'-LYTE kinase selectivity; assay type: biochemical
Chain of CaMK2 alpha (Q9UQM7 whole entry): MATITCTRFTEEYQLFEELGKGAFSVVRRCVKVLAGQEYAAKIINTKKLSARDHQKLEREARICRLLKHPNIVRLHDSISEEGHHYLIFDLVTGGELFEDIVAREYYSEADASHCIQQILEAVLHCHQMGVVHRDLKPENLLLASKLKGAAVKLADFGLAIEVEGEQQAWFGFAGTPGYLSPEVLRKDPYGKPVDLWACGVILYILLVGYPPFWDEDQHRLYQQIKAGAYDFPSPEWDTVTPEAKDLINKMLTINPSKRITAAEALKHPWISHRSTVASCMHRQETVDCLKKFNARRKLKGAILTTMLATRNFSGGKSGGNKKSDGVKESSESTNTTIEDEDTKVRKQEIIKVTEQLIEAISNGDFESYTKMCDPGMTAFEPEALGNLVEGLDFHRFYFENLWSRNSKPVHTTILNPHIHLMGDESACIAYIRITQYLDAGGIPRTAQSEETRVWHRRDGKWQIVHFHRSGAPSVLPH

[22] = target: CHK1 (Homo sapiens, UniProt O14757); test: Z'-LYTE kinase selectivity; assay type: biochemical
Chain of CHK1 (O14757 whole entry): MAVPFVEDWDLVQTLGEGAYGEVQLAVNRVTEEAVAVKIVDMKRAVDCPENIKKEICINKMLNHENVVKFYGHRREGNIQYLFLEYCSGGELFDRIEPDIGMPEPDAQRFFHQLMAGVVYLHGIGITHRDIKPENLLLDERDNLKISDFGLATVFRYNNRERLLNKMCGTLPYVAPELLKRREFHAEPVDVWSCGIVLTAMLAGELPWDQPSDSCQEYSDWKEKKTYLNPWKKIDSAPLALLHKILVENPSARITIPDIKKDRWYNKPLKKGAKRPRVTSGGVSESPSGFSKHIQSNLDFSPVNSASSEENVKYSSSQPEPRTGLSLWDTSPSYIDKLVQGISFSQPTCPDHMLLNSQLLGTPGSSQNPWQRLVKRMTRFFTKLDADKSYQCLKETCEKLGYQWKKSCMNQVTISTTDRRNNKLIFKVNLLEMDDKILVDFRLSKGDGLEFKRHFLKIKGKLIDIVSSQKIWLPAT

Chain of CK1 alpha (P48729 whole entry): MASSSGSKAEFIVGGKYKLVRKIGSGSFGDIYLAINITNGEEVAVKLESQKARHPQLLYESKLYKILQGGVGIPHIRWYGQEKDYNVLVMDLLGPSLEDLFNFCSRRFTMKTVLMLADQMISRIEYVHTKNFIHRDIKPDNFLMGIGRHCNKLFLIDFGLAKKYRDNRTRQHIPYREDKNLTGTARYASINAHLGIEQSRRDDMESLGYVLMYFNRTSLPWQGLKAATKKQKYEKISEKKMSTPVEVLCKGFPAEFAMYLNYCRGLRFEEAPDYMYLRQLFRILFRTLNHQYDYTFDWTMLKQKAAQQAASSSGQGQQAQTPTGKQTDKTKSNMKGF
Chain of LCK (P06239 whole entry): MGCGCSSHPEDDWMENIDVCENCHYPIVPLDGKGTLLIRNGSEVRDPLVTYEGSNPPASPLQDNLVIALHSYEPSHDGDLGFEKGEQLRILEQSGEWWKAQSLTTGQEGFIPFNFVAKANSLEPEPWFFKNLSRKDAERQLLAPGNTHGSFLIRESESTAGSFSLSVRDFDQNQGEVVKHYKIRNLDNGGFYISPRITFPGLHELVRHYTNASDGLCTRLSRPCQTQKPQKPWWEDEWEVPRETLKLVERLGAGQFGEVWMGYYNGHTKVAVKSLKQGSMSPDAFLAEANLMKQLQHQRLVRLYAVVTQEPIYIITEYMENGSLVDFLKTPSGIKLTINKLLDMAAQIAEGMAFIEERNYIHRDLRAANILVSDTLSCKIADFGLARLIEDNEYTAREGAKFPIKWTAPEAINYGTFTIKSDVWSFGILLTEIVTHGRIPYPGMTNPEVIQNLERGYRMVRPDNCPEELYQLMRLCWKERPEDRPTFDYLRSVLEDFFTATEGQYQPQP

For `COc1cc(N2CCC(N3CCN(C)CC3)CC2)ccc1Nc1ncc(Cl)c(Nc2ccccc2P(C)(C)=O)n1` [Brigatinib, reference compound], the IC50 [1] was 444 ± 84 nM, the IC50 [2] was greater than 10 µM and the IC50 [3] was 1080 ± 502 nM. The IC50 [4] was 1520 ± 733 nM, the “levels of phosphorylation of STAT3 and STAT5 in tumor tissue” value [5] was “decreased” and the IC50 [6] was 1830 ± 231 nM. The Tumor volume Mean ([7]; day 0 after administration) was 174 mm³, the “Tumor volume, individual animals” value ([7]; day 0 after administration) was 116 and 221 and 152 and 134 and 154 and 194 and 207 and 229 and the Tumor volume Mean ([7]; day 3 after administration) was 252 mm³. The “Tumor volume, individual animals” value ([7]; day 3 after administration) was 235 and 195 and 320 and 239 and 193 and 260 and 247 and 262 and 319, the Tumor volume Mean ([7]; day 6 after administration) was 352 mm³ and the “Tumor volume, individual animals” value ([7]; day 6 after administration) was 344 and 246 and 444 and 301 and 248 and 364 and 372 and 370 and 474. The Tumor volume Mean ([7]; day 9 after administration) was 461 mm³, the “Tumor volume, individual animals” value ([7]; day 9 after administration) was 473 and 337 and 548 and 418 and 289 and 518 and 482 and 535 and 555 and the Tumor volume Mean ([7]; day 13 after administration) was 502 mm³. The “Tumor volume, individual animals” value ([7]; day 13 after administration) was 454 and 241 and 654 and 480 and 315 and 575 and 637 and 495 and 666, the Tumor volume Mean ([7]; day 16 after administration) was 547 mm³ and the “Tumor volume, individual animals” value ([7]; day 16 after administration) was 521 and 320 and 707 and 541 and 350 and 627 and 656 and 464 and 737. For the same compound, the Tumor volume Mean ([7]; day 20 after administration) was 612 mm³, the “Tumor volume, individual animals” value ([7]; day 20 after administration) was 710 and 414 and 729 and 637 and 412 and 711 and 707 and 501 and 687 and the IC50 [8] was greater than 10 µM. It also gave an IC50 [9] greater than 10 µM, an IC50 [10] of 4.04 ± 2.16 µM and an IC50 [11] of 596 ± 52 nM. For the same compound, the IC50 [12] was 479 ± 110 nM, the IC50 [13] was 469 nM and the IC50 [14] was 9 nM. For the same compound, the IC50 [15] was 2120 ± 23 nM, the IC50 [16] was 425 nM and the IC50 [17] was 6.49 nM. For the same compound, the IC50 [18] was 1510 ± 554 nM, the IC50 [19] was 950 ± 309 nM and the IC50 [20] was 680 ± 47 nM. The IC50 [21] was 319 ± 13 nM and the IC50 [22] was 70 ± 32 nM.
